Measured values reported in US20030055065A1, “Tricyclic amide and urea compounds useful for inhibition of G-protein function and for treatment of proliferative diseases” (priority 1993, published 2003).
Values joined by “and” are separate entries in the source; they are usually repeats but may differ in a detail not shown here. Equal entries are not always repeated. Where two headings read alike, the source gives them in different places.

Legend:
[1] = system: T24-BAG4 human bladder carcinoma cells expressing an activated H-ras gene; assay: Cell Mat Assay: tumor cell colony inhibition (tIC50); assay type: cell-based; settings: inhibition of tumor cell growth
In short: (§1)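 Serial compound dilutions added 24 h after planting T24-BAG4 cells onto a mat of normal cells, then 14 d colony growth; monolayers glutaraldehyde-fixed and tumor cells X-Gal stained. tIC50 and mIC50 from microscope counts of colonies, cells per colony and mat cell density.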

[2] = target: T1, geranylgeranyl protein transferase (GGPT) I (Rattus norvegicus, UniProt P53610+Q04631); assay: Inhibition of geranylgeranyl protein transferase I (Ras-CVLL as acceptor); assay type: biochemical; settings: for IC50: enzyme inhibition
T1 construct: were partially purified from rat brain by ammonium sulfate fractionation followed by Q-Sepharose
T1 sequence (P53610 whole entry, one chain of several): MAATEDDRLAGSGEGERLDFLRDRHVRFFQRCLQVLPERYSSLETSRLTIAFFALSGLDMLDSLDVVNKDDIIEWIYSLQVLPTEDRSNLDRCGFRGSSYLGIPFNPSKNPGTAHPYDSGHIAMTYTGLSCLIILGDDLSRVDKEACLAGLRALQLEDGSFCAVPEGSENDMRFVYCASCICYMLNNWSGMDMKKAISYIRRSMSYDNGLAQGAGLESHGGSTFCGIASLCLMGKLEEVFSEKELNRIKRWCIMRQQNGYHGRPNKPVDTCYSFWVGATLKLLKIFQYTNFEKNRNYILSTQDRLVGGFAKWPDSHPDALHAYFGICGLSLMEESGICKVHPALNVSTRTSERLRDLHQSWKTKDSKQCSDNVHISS
Description: 1. In vitro enzyme assays: Inhibition of farnesyl protein transferase and geranylgeranyl protein transferase.
Both farnesyl protein transferase (FPT) and geranylgeranyl protein transferase (GGPT) I were partially purified from rat brain by ammonium sulfate fractionation followed by Q-Sepharose (Pharmacia, Inc.) anion exchange chromatography essentially as described by Yokoyama et al (Yokoyama, K., et al., (1991), A protein geranylgeranyltransferase from bovine brain: Implications for protein prenylation specificity, Proc. Natl. Acad. Sci USA 88: 5302-5306, the disclosure of which is incorporated herein by reference thereto). Human farnesyl protein transferase was also expressed in E. coli, using cDNA clones encoding both the α and β subunits. The methods used were similar to those published (Omer, C. et al., (1993), Characterization of recombinant human farnesyl protein transferase: Cloning, expression, farnesyl diphosphate binding, and functional homology with yeast prenyl-protein transferases, Biochemistry 32:5167-5176). Human farnesyl protein transferase was partially-purified from the soluble protein fraction of E. coli as described above. […] Two forms of val^12-Ha-Ras protein were prepared as substrates for these enzymes, differing in their carboxy terminal sequence. One form terminated in cysteine-valine-leucine-serine (Ras-CVLS) the other in cystein-valine-leucine-leucine (Ras-CVLL). Ras-CVLS is a substrate for the farnesyl protein transferase while Ras-CVLL is a substrate for geranylgeranyl protein transferase I. The cDNAs encoding these proteins were constructed so that the proteins contain an amino-terminal extension of 6 histidine residues. Both proteins were expressed in Escherichia coli and purified using metal chelate affinity chromatography. The radiolabelled isoprenyl pyrophosphate substrates, [^3H]farnesyl pyrophosphate and [3H]geranylgeranyl pyrophosphate, were purchased from DuPont/New England Nuclear.
The geranylgeranyl protein transferase I assay was essentially identical to the farnesyl protein transferase assay described above, with two exceptions: [^3H]geranylgeranylpyrophosphate replaced farnesyl pyrophosphate as the isoprenoid donor and Ras-CVLL was the protein acceptor.

[3] = system: Normal human HEPM fibroblasts; assay: Cell Mat Assay: density of mat cells (mIC50); assay type: cell-based
In short: as §1

[4] = system: Ras-CVLS processing in COS monkey kidney cells; assay: COS cell assay: Ras-CVLS processing (Western blot); assay type: cell-based; settings: COS cells; for IC50: read-out: Inhibition of Ras Processing IC50; for Inhibition of Ras Processing at the concentration in parentheses: (5) μM
Procedure: 2. […] Effect of farnesyl protein transferase inhibitors on Ras processing and on disordered cell growth induced by transforming Ras. COS monkey kidney cells were transfected by electroporation with the plasmid pSV-SPORT (Gibco/BRL) containing a cDNA insert encoding either Ras-CVLS or Ras-CVLL, leading to transient overexpression of a Ras substrate for either farnesyl protein transferase or geranylgeranyl protein transferase I, respectively (see above). […] After 24 hours, media was removed and fresh media containing the appropriate drugs was re-added. 48 hours after electroporation cells were examined under the microscope to monitor disordered cell growth induced by transforming Ras. Cells expressing transforming Ras become more rounded and refractile and overgrow the monolayer, reminiscent of the transformed phenotype. […] Cells were lysed by homogenization and cell debris was removed by centrifugation at 2000×g for 10 min. Cellular protein was precipitated by addition of ice-cold trichloroacetic acid and redissolved in 100 μl of SDS-electrophoresis sample buffer. […] Proteins resolved on the gels were electroblotted onto nitrocellulose membranes for immunodetection. […] E., et al., (1982), Monoclonal antibodies to the p21 products of the transforming gene of Harvey murine sarcome virus and of the cellular ras gene family, J. Virol. 43: 294-304), in PBS containing 1% fetal calf serum for one hour at room temperature. After washing, membranes were incubated for one hour at room temperature with a 1:5000 dilution of secondary antibody, rabbit anti-rat IgG conjugated to horseradish peroxidase, in PBS containing 1% fetal calf serum.

[5] = target: T2, farnesyl protein transferase (FPT), partially purified from rat brain (Rattus norvegicus, UniProt Q02293+Q04631); assay: Inhibition of farnesyl protein transferase (transfer of [3H]farnesyl to Ras-CVLS); assay type: biochemical; settings: read-out: FPT IC50
T2 construct: were partially purified from rat brain by ammonium sulfate fractionation followed by Q-Sepharose
T2 sequence (Q02293 whole entry, one chain of several): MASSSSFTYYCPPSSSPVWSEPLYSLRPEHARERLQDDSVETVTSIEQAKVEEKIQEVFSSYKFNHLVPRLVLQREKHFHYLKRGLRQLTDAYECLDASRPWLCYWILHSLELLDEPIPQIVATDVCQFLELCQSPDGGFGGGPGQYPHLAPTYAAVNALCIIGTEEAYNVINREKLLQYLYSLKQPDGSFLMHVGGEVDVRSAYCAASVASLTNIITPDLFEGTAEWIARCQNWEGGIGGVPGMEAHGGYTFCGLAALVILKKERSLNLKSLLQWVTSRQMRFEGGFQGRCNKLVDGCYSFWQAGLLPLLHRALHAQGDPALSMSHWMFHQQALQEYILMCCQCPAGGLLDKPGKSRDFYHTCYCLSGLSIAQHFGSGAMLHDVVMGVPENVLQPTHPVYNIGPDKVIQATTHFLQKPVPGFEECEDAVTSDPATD
In short: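 Transfer of [3H]farnesyl onto E. coli-expressed, His6-tagged Ras-CVLS was measured after 30 min at room temperature. Radiolabelled Ras was TCA-precipitated on ice and filter-harvested, and inhibition was expressed as percent of DMSO control.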

[6] = Ras-CVLS farnesylation, partially purified rat brain FPT

SMILES	IC50 [2]	IC50 [5, 6]	IC50 ([5]; enzyme inhibition)	IC50 ([1]; Homo sapiens)	IC50 ([3]; Homo sapiens, Fibroblast)	also measured
O=C(c1ccc(O)c(O)c1)N1CCC(=C2c3ccc(Cl)cc3CCc3cccnc32)CC1 [Example 8]	42 µM	2.3 µM	2.3 µM			
O=C(CN1C(=O)c2ccccc2C1=O)N1CCN(C2c3ccc(Cl)cc3CCc3cccnc32)CC1 (stereo not shown) [Example 76]	> 50 µM			> 50 µM	> 50 µM	
O=C(Cc1ccc(Br)cc1)N1CCN(C2c3ccc(Cl)cc3CCc3cccnc32)CC1 (stereo not shown) [Example 77]	> 39 µM					IC50 [1]: > 50 µM; IC50 [3]: > 50 µM; IC50 [4]: 9.2 µM
O=C(Cc1ccncc1)N1CCC(=C2c3ccc(Cl)cc3CCc3cc(Cl)cnc32)CC1 [Example 180]	> 42 µM	0.04 µM		12.5 µM	50 µM	IC50 [1]: 18 µM; IC50 [3]: > 50 µM
O=C(Cc1cc[n+]([O-])cc1)N1CCC(C2c3ccc(Cl)cc3CCc3cccnc32)CC1 (stereo not shown) [Example 234]	> 43 µM	0.33 µM		3.1 µM	> 50 µM	IC50 ([4]; Primates, COS): 2.2 µM
O=C(Nc1cccnc1)N1CCN(C2c3ccc(Cl)cc3CCc3cc(Br)cnc32)CC1 (stereo not shown) [Example 354]	1000 µM	0.21 µM		6.25 µM	≥ 25 µM	
CN1CCC(CC(=O)N2CCC(C3c4ccc(Cl)cc4C=Cc4cc(Br)cnc43)CC2)CC1 (stereo not shown) [Example 400-B]	> 38 µM	0.068 µM	0.068 µM	< 1.6 µM		
O=C(Cc1ccncc1)N1CCC(C2c3ccc(Cl)cc3CCc3cc(Br)cnc32)CC1 (stereo not shown) [Example 400-E]		0.04 µM	0.04 µM	< 1.6 µM	18 µM	GGPT inhibition at the concentration in parentheses ([2]; (38) μM): 30 (38)
O=C(Cc1cc[n+]([O-])cc1)N1CCC(C2c3ccc(Cl)cc3CCc3cc(Br)cnc32)CC1 (stereo not shown) [Example 400-F]		0.036 µM	0.036 µM	< 1.6 µM	> 25 µM	GGPT inhibition at the concentration in parentheses ([2]; (36) μM): 0 (36)
CN1CCC(CC(=O)N2CCC(C3c4ccc(Cl)cc4CCc4cc(Br)cnc43)CC2)CC1 (stereo not shown) [Example 400-J]	1000 µM	0.14 µM	0.14 µM			GGPT inhibition at the concentration in parentheses ([2]; (36) μM): 6 (36)
CC1(C2CCN(C(=O)Cc3ccncc3)CC2)c2ccc(Cl)cc2CCc2cc(Br)cnc21 (stereo not shown) [Example 410-A]	~40 µM	0.086 µM	0.086 µM			GGPT inhibition at the concentration in parentheses ([2]; (35) μM): 47 (35)
CC1(C2CCN(C(=O)Cc3cc[n+]([O-])cc3)CC2)c2ccc(Cl)cc2CCc2cc(Br)cnc21 (stereo not shown) [Example 410-B]	1000 µM	0.084 µM	0.084 µM			GGPT inhibition at the concentration in parentheses ([2]; (35) μM): 21 (35)
O=C(CN1CCS(=O)(=O)CC1)N1CCC(=C2c3ccc(Cl)cc3CCc3cc(Br)cnc32)CC1 [Example 410-G]		0.21 µM	0.21 µM			GGPT inhibition at the concentration in parentheses ([2]; (33) μM): 32 (33); IC50 ([4]; Primates, COS): 4 µM
O=C(Cc1cc[n+]([O-])cc1)N1CCC(=C2c3ccc(Cl)cc3C=Cc3cc(Br)cnc32)CC1 [Example 417-B]			0.14 µM	< 1.6 µM	> 25 µM	GGPT inhibition at the concentration in parentheses ([2]; (32) μM): 15 (32)
O=C(Cc1ccncc1)N1CCC(C2c3ccc(Cl)cc3C(=NO)Cc3cccnc32)CC1 (stereo not shown) [Example 419]			< 0.12 µM			GGPT inhibition at the concentration in parentheses ([2]; (41) μM): 0 (41)

Now from value to compound, other results behind:

IC50 [2]	IC50 [5, 6]	IC50 ([5]; enzyme inhibition)	IC50 ([1]; Homo sapiens)	SMILES	IC50 ([3]; Homo sapiens, Fibroblast)	also measured
> 41 µM				O=C(Cc1cc[n+]([O-])cc1)N1CCC(=C2c3ccc(Cl)cc3CCc3cccnc32)CC1 [227 (5.102)]		IC50 [1]: 4 µM; IC50 [3]: > 50 µM; IC50 [4]: 1 µM
> 42 µM	0.23 µM			O=C(Cc1ccncc1)N1CCC(=C2c3ccc(Br)cc3CCc3cccnc32)CC1 [Example 181]		
> 40 µM	0.06 µM			O=C(Cc1ccncc1)N1CCC(=C2c3ccc(Cl)cc3CCc3cc(Br)cnc32)CC1 [Example 246]	50 µM	IC50 ([3]; listed as 246 (5.121)): > 50 µM
> 40 µM	0.72 µM and 5.02 µM			CO[C@](C(=O)N1CCC(=C2c3ccc(Cl)cc3CCc3cccnc32)CC1)(c1ccccc1)C(F)(F)F [Example 287]	> 50 µM	IC50 ([4]; Primates, COS): > 10 µM
> 40 µM	1.44 µM and 1.4 µM		12.5 µM	CC(C)(C(=O)N1CCC(=C2c3ccc(Cl)cc3CCc3cccnc32)CC1)c1ccccc1 [Example 289]	> 50 µM	IC50 [1]: 18 µM; IC50 ([4]; Primates, COS): > 10 µM
> 38 µM	3.8 µM and 2.55 µM		12.5 µM	CO[C@@](C(=O)N1CCC(=C2c3ccc(Cl)cc3CCc3cccnc32)CC1)(c1ccccc1)C(F)(F)F [Example 290]	> 50 µM	IC50 [1]: 6.25 µM and 8 µM
> 46 µM	0.87 µM		18 µM	O=C(Nc1ccncc1)N1CCC(=C2c3ccc(Cl)cc3CCc3cccnc32)CC1 [Example 291]	> 50 µM	IC50 ([4]; Primates, COS): 3.6 µM
> 44 µM	0.99 µM		6.25 µM	O=C(Nc1cccnc1)N1CCC(=C2c3ccc(Cl)cc3CCc3cccnc32)CC1 [Example 292]	> 50 µM	IC50 ([4]; Primates, COS): 6.8 µM
> 40 µM	2.63 µM			CC(C)(C)c1cnc2c(c1)CCc1cc(Cl)ccc1C2=C1CCN(C(=O)Cc2cccnc2)CC1 [Example 304]		IC50 [3]: > 50 µM
1000 µM	0.24 µM	0.24 µM		CN1CCC(CC(=O)N2CCC(=C3c4ccc(Cl)cc4CCc4cc(Br)cnc43)CC2)CC1 [Example 400-H]		GGPT inhibition at the concentration in parentheses ([2]; (36) μM): 0 (36); Inhibition of Ras Processing at the concentration in parentheses [4]: 100 (5); IC50 ([4]; Primates, COS): 2.5 µM
1000 µM	0.21 µM	0.21 µM		CN1CCCC(CC(=O)N2CCC(=C3c4ccc(Cl)cc4CCc4cc(Br)cnc43)CC2)C1 (stereo not shown) [Example 400-K]		GGPT inhibition at the concentration in parentheses ([2]; (37) μM): 0 (37); Inhibition of Ras Processing at the concentration in parentheses [4]: 100 (5); IC50 ([4]; Primates, COS): 2.2 µM
	0.068 µM	0.068 µM	1.6 µM	O=C(Cc1ccncc1)N1CCC(=C2c3ccc(Cl)cc3CCc3cc(I)cnc32)CC1 [Example 400]	> 25 µM	GGPT inhibition at the concentration in parentheses ([2]; (36) μM): 29 (36)
1000 µM	0.063 µM and 0.08 µM	0.063 µM and 0.08 µM	< 1.6 µM	O=C(Cc1cc[n+]([O-])cc1)N1CCC(=C2c3ccc(Cl)cc3CCc3cc(I)cnc32)CC1 [Example 401]	> 25 µM	GGPT inhibition at the concentration in parentheses ([2]; (34) μM): 7 (34)
		0.16 µM and 0.17 µM		O=C(Cc1cc[n+]([O-])cc1)N1CCC(=C2c3ccc(Cl)cc3CCc3cc(Cl)cnc32)CC1 [Example 411-W]		GGPT inhibition at the concentration in parentheses ([2]; (42) μM): 3 (42)
